ChEMBL document CHEMBL3797034, “Design, synthesis and evaluation of novel tacrine-multialkoxybenzene hybrids as multi-targeted compounds against Alzheimer's disease” (Eur J Med Chem, 2016)
Calls of active or inactive are those of the source. The calls are words filed in the database; no cut-off is given here.

Key:
Acetylcholinesterase = Acetylcholinesterase (Electrophorus electricus, UniProt O42275)
Description: Inhibition of electric eel AChE using acetylthiocholine chloride as substrate preincubated for 20 mins followed by substrate addition by Ellman's method

Cholinesterase = Cholinesterase (Equus caballus, UniProt P81908)
Description: Inhibition of equine serum BuChE using butylthiocholine chloride as substrate preincubated for 20 mins followed by substrate addition by Ellman's method

[1] = target: Amyloid-beta precursor protein (Homo sapiens, UniProt P05067)
Sequence of Amyloid-beta precursor protein (P05067 whole entry): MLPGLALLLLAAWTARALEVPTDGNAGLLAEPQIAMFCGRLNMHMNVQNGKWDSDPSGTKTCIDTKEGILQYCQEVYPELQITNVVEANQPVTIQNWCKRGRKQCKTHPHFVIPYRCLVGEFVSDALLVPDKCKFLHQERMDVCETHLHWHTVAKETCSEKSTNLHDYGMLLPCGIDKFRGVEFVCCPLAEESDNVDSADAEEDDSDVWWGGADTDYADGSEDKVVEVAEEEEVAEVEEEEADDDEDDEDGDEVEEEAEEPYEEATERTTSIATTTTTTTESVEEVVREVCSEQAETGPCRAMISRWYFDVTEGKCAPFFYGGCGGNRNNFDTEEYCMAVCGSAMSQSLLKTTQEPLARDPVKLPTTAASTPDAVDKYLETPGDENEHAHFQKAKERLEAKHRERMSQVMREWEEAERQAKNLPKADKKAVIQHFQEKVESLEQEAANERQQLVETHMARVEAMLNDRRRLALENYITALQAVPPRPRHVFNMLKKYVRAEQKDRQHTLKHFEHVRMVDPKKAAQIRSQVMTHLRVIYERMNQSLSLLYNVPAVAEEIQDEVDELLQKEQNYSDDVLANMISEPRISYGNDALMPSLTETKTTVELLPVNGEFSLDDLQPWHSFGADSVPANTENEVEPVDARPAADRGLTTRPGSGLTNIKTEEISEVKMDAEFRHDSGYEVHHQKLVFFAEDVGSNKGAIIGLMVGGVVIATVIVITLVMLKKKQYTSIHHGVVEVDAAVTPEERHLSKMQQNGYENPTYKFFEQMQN
Description: Inhibition of self-mediated amyloid beta (1 to 42) (unknown origin) aggregation after 24 hrs by thioflavin T fluorescence assay

[2] = target: Acetylcholinesterase (Electrophorus electricus) (UniProt O42275); assay: Mixed inhibition of electric eel AChE using acetylthiocholine chloride as substrate preincubated for 20 mins followed by substrate addition by Lineweaver-burk plot analysis
Sequence of Acetylcholinesterase (Electrophorus electricus) (O42275 24-633 limits assumed): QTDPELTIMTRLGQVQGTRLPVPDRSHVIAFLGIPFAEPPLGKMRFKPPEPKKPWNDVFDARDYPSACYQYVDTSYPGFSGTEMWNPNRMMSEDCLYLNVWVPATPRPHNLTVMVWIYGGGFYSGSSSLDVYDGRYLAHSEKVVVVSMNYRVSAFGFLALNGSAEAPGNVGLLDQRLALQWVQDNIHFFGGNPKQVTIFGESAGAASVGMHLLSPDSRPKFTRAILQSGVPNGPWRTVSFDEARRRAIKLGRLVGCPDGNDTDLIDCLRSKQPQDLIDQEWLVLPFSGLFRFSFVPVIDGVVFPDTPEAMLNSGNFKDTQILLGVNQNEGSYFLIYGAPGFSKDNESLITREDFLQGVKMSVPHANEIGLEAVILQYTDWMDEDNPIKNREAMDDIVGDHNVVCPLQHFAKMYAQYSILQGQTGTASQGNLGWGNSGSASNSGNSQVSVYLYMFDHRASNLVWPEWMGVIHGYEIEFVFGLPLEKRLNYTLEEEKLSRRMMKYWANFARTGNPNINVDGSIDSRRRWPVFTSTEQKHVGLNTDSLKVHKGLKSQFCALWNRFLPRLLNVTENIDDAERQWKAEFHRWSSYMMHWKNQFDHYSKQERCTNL

[3] = target: Acetylcholinesterase (Electrophorus electricus) (UniProt O42275); assay: Reversible inhibition of electric eel AChE using acetylthiocholine chloride as substrate preincubated for 20 mins followed by substrate addition by Lineweaver-burk plot analysis

Sequence of Cholinesterase (P81908 whole entry): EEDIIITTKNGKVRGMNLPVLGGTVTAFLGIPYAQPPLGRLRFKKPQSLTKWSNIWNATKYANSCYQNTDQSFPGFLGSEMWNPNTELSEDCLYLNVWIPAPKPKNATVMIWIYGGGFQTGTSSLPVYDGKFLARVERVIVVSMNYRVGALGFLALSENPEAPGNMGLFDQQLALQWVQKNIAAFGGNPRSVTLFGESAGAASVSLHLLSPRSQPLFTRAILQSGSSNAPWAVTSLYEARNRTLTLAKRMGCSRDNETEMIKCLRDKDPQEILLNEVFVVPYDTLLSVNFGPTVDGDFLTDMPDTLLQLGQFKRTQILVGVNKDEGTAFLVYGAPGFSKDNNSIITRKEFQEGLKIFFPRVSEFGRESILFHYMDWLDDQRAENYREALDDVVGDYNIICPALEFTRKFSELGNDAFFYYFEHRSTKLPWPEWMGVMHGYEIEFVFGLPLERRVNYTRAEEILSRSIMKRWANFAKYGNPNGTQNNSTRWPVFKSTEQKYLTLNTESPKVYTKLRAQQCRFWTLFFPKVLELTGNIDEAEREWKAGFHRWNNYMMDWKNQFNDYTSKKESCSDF
Sequence of Acetylcholinesterase (O42275 whole entry): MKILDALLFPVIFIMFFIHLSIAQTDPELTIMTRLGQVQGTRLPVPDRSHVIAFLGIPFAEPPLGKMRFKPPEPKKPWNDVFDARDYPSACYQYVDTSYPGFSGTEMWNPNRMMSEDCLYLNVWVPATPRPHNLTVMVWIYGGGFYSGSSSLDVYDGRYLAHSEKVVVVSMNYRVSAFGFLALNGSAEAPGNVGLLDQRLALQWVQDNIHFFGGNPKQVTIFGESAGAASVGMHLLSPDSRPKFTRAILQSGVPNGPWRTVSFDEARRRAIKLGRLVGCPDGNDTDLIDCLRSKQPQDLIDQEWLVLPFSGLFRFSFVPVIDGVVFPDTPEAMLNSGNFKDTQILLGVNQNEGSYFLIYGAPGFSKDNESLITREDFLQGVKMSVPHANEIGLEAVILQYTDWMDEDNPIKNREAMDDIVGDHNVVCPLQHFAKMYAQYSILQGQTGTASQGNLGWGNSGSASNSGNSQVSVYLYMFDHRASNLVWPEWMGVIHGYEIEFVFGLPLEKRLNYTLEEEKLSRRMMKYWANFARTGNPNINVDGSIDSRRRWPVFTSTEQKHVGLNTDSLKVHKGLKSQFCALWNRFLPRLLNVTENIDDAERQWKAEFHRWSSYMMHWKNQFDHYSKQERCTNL

Structure (SMILES) | IC50 (Acetylcholinesterase) | IC50 (Cholinesterase) | IC50 [1] | inhibition [2] | inhibition [3]
COc1ccc(/C=C/C(=O)OCC(=O)Nc2c3c(nc4ccccc24)CCCC3)cc1OC | 16.2 nM | 159 nM | 49.1 nM | – | –
O=C(COC(=O)/C=C/c1ccc(Cl)cc1)Nc1c2c(nc3ccccc13)CCCC2 | 213 nM | 542 nM | 51.8 nM | – | –
O=C(COC(=O)c1ccc(O)c(O)c1)Nc1c2c(nc3ccccc13)CCCC2 | 133 nM | 344 nM | 17.4 nM | – | –
COc1cc(C(=O)OCC(=O)Nc2c3c(nc4ccccc24)CCCC3)cc(OC)c1OC | 8.46 nM | 329 nM | 30.7 nM | – | –
O=C(COC(=O)Cc1ccc(Cl)cc1)Nc1c2c(nc3ccccc13)CCCC2 | 183 nM | 218 nM | 77.5 nM | – | –
COc1ccc(CC(=O)OCC(=O)Nc2c3c(nc4ccccc24)CCCC3)cc1 | 25.3 nM | 319 nM | 71.3 nM | – | –
COc1ccc(C(=O)OCC(=O)Nc2c3c(nc4ccccc24)CCCC3)c(OC)c1OC | 15.5 nM | 255 nM | 65.5 nM | – | –
COc1cc(OC)cc(C(=O)OCC(=O)Nc2c3c(nc4ccccc24)CCCC3)c1 | 15.7 nM | 224 nM | 55.9 nM | – | –
COc1cc(C(=O)OCC(=O)Nc2c3c(nc4ccccc24)CCCC3)ccc1O | 70.1 nM | 319 nM | 37.4 nM | – | –
O=C(COC(=O)Cc1ccc(O)cc1)Nc1c2c(nc3ccccc13)CCCC2 | 74 nM | 239 nM | 45.3 nM | – | –
COc1cc(/C=C/C(=O)OCC(=O)Nc2c3c(nc4ccccc24)CCCC3)cc(OC)c1OC | 16.9 nM | 299 nM | 45.9 nM | – | –
O=C(COC(=O)Cc1c[nH]c2ccccc12)Nc1c2c(nc3ccccc13)CCCC2 | 8.13 nM | 292 nM | 39 nM | – | –
COc1ccc(CC(=O)OCC(=O)Nc2c3c(nc4ccccc24)CCCC3)c(OC)c1OC | 5.63 nM | 364 nM | 51.8 nM | Active | Active
COc1ccc(/C=C/C(=O)OCC(=O)Nc2c3c(nc4ccccc24)CCCC3)cc1O | 74.9 nM | 355 nM | 46.1 nM | – | –
COc1ccc(CC(=O)OCC(=O)Nc2c3c(nc4ccccc24)CCCC3)cc1OC | 65.1 nM | 554 nM | 22.5 nM | – | –
